According to patent publication US20020147232A1 (priority 2000, published 2002):

Experiments:
blood pressure [1] = details: oral single dose; cited from earlier work
pilomotor reaction = details: oral, seven healthy volunteers; cited from earlier work
blood pressure [2] = details: cited from earlier work
[3] = Tsutsui, n = 5 healthy volunteers, label = administered drug, cited from earlier work
[4] = Stability of desglymidodrine (calibration curve of desglymidodrine); assay type: physicochemical
[5] = Stability of desglymidodrine in solution (comparison of peak areas); assay type: physicochemical; details: for 0 days (peak area), autoclave series: before autoclave
Excerpt: The tablets were subject to stability testning. […] The following initial results were obtained:
Stability of desglymidodrinein solution
Based on comparison of peak areas

[6] = solution in Buffer pH 7.4, 0 days

COc1ccc(OC)c(C(O)CNC(=O)CN)c1 (stereo not drawn) [midodrine, 2-amino-N-[2-(2,5-dimethoxyphenyl)-2-hydroxyethyl]-acetamide, reference compound]
persistence of pressor effect (blood pressure [1]): 3 to 6 h
time until pressor effect is manifest (blood pressure [1]): 20 to 90 min
duration of effect (pilomotor reaction) (pilomotor reaction): 150 (30-240) min
time to occurrence of pilomotor reaction (pilomotor reaction): 74 ± 29 min
intravenous dose as potent as 5 mg desglymidodrine i.v. with respect to increase of blood pressure (blood pressure [2]; intravenous): 20 to 25 mg
Tmax midodrine ([3]; analyte midodrine): 1.4 ± 0.2 h

COc1ccc(OC)c(C(O)CN)c1 (stereo not drawn) [desglymidodrine, alpha-(aminomethyl)-2,5-dimethoxy-benzenemethanol]
content of desglymidodrine, 14 days ([4]; Glass, 25° C./60% RH 1.2mioluxh): 103
content of desglymidodrine, 0 days ([4]; Glass, 25° C./60% RH): 100
content of desglymidodrine, 14 days ([4]; Glass, 25° C./60% RH): 103
content of desglymidodrine, 21 days ([4]; Glass, 25° C./60% RH): 100
content of desglymidodrine, 14 days ([4]; Glass, 40° C./75% RH): 102
content of desglymidodrine, 21 days ([4]; Glass, 40° C./75% RH): 100
content of desglymidodrine, 0 days ([4]; Open petri dish, 25° C./60% RH): 100
content of desglymidodrine, 14 days ([4]; Open petri dish, 25° C./60% RH): 102
content of desglymidodrine, 21 days ([4]; Open petri dish, 25° C./60% RH): 100
content of desglymidodrine, 14 days ([4]; Open petri dish, 40° C./75% RH): 102
content of desglymidodrine, 21 days ([4]; Open petri dish, 40° C./75% RH): 97
duration of effect (pilomotor reaction) (pilomotor reaction): 160 (135-185) min
time to occurrence of pilomotor reaction (pilomotor reaction): 34 ± 25 min
peak area, 0 days ([5]; solution in 0.1N HCl, 0 days): 1548689
0 days (peak area), autoclave series ([5]; solution in 0.1N HCl, 0 days): 99
peak area, 7 days ([5]; solution in 0.1N HCl, 7 days): 1516212
Autoclave 120° C. ([5]; solution in 0.1N HCl, after autoclave 120° C.): 101
peak area, 0 days [5, 6]: 1341613
0 days (peak area), autoclave series [5, 6]: 102
peak area, 7 days ([5]; solution in Buffer pH 7.4, 7 days): 1289393
Autoclave 120° C. ([5]; solution in Buffer pH 7.4, after autoclave 120° C.): 102
peak area, 0 days ([5]; solution in Water, 0 days): 1582140
0 days (peak area), autoclave series ([5]; solution in Water, 0 days): 100
peak area, 7 days ([5]; solution in Water, 7 days): 1601999
Autoclave 120° C. ([5]; solution in Water, after autoclave 120° C.): 100
duration of blood pressure effect (blood pressure [2]; intravenous injection of 5 mg): 3 to 4 min
Tmax desglymidodrine ([3]; analyte desglymidodrine): 1.2 ± 0.2 h
